In patent publication US20180327354A1, “Unnatural Analogues of Calcitriol and Uses Thereof” (Vidasym, Inc., priority 2009, published 2018):
“Also recorded” adds a separate entry of the source.

What was measured:
thrombomodulin = experiment: Thrombomodulin protein in human coronary artery smooth muscle cells (Western blot); type: cell-based; conditions: HCASMC, 48 h, FIG. 21B
Description: (§1) Human coronary artery smooth muscle cells (HCASM) were incubated with Vida-5 or Vida-11 at different concentrations for 48 h and then were solubilized in 50 al of SDS-PAGE sample buffer. The protein content in each sample was determined by the bicinchoninic acid protein assay. Samples were resolved by SDS-PAGE using a 4-12% NuPAGE gel, and proteins were electrophoretically transferred to polyvinylidene fluoride membrane for Western blotting. The membrane was blocked for 1 h at 25° C. with 5% nonfat dry milk in phosphate buffered saline Tween-20 (PBS-T) and then incubated with a mouse anti-thrombospondin-1 monoclonal antibody (2,000-fold dilution), or a mouse anti-TM monoclonal antibody (2,000-fold dilution) in PBS-T overnight at 4° C.
(§2) The membrane was washed with PBS-T and incubated with a horseradish peroxidase-labeled anti-mouse antibody for 1 h at 25° C. The membrane was then incubated with Amersham ECL Plus Western Blotting Detection Reagents. Specific bands were visualized by the Multiimage II of Alpha Innotech imaging system. Band intensity was quantified using Spot Denso.

[1] = test system: 5/6 nephrectomized uremic rats; experiment: Proteinuria in 5/6 nephrectomized uremic rats; type: in vivo, Sprague Dawley rats; conditions: 5/6 NX rats, 3×/week, i.p. for 2 weeks, before versus after treatment
Description: The experimental conditions using the 5/6 (subtotal) nephrectomized rats were as described above. Urinary protein excretion was determined by urinary collection over a period of 24 h in metabolic cages at two time points: 24 h before the first dose and 24 hr after the last dose. Each animal was placed in a metabolic cage and urine was collected during a period of 24 h. Urinary protein concentration was determined by the biuret method (Morozova and Baryshnikova, 1991, Lab Delo 2:23-5). Total protein excretion per day was calculated by multiplying urinary protein concentration by total urine volume produced during the 24 h period.
Group mean±SEM are presented. Differences before versus after treatment were assessed using a t-test. Differences between SHAM, vehicle, and treated animals were assessed using a one-way ANOVA followed by a Dunnett's post-hoc test.

thrombospondin-1 = experiment: Thrombospondin-1 protein in human coronary artery smooth muscle cells (Western blot); type: cell-based; conditions: HCASMC, 48 h, FIG. 21A
Description: as §1, §2

[2] = test system: 5/6 nephrectomized uremic rats; experiment: Left ventricular hypertrophy in 5/6 nephrectomized uremic rats; type: in vivo, Sprague Dawley rats; conditions: 5/6 NX rats, 0.16 and 0.64 μg/kg, LVH study

SMILES	thrombomodulin protein expression (thrombomodulin)	proteinuria (urinary protein concentration and total protein per day) [1]	thrombospondin-1 protein expression (thrombospondin-1)	effect on serum Ca [2]
C=C1[C@H](O)CC(=C/C=C2\CCCC3(C)C2CCC3[C@@H](C)OC[C@H](C)C(C)(C)O)C[C@H]1O (stereo partly drawn) [Vida-5, (1R,3R)-5-((E)-2-((3αS,7αS)-1-((R)-1-((S)-3-hydroxy-2,3-dimethylbutoxy)ethyl)-7α-methyldihydro-1H-inden-4(2H,5H,6H, 7H, 7αH)-ylidene)ethylidene)-2-methylenecyclohexane-1,3-diol]	induce; also recorded: increased	reduce proteinuria; also recorded: significantly reduced proteinuria	suppress; also recorded: significantly reduced	
CCC(O)(CC)CCO[C@H](C)C1CCC2/C(=C/C=C3C[C@@H](O)C4(CC4)[C@H](O)C3)CCCC21C (stereo partly drawn) [Vida-10, (4R,8R)-6-((E)-2-((1S,7αS)-1-((R)-1-(3-ethyl-3-hydroxypentyloxy)ethyl)-7α-methyldihydro-1H-inden-4(2H,5H,6H,7H,7αH)-ylidene)ethylidene)spiro[2.5]octane-4,8-diol]				no effect
C=C1[C@H](O)CC(=C/C=C2\CCCC3(C)C2CCC3[C@@H](C)OCCC(O)(CC)CC)C[C@H]1O (stereo partly drawn) [Vida-11, (1R,3R)-5-((E)-2-((1S,3αS,7αS)-1-((R)-1-(3-ethyl-3-hydroxypentyloxy)ethyl)-7α-methyldihydro-1H-inden-4(2H, 5H, 6H, 7H, 7αH)-ylidene)ethylidene)-2-methylenecyclohexane-1,3-diol]		reduce proteinuria; also recorded: significantly reduced proteinuria		
